In US6890954B1, “Uses of 2-bromopalmitate in the treatment of autoimmune disease” (priority 1999, dated 2005):

Assays:
Format in all cases: cell-based
[1] = system: Fyn; assay: Subcellular fractionation (P100/S100) of Fyn in COS-1 cells
Procedure: Each 60 mm plate of Fyn transfected COS-1 cells was starved for […] in DMEM containing 2.5% FBS and 0.5% defatted BSA with or without 100 μM 2-bromopalmitate. After overnight culture at 37° C., the cells were fractionated into P100 and S100 fractions, immunoprecipitated with anti-Fyn antibody, subjected to SDS-PAGE, and immunoblotted with anti-Fyn antibody as previously described (9,12,13).
For analysis of newly synthesized Fyn, cells were cultured overnight as descibed above, then starved for 1 hr in DMEM minus methionine and cysteine containing 2% dialyzed FBS, 0.5% defatted BSA with or without 100 μM 2-bromopalmitate. Cells were labeled for 5 minutes with Trans^35S-Label (ICN, Irvine, Calif.), then fractionated as described above. Gels were treated for 20 minutes with 1M salicylic acid prior to drying. The Gαo(10)-Fyn chimera was labeled for 5 min and GAP-43 Fyn chimera was labeled for 2 hours and fractionated according to the above conditions.
Newly synthesized Fyn becomes plasma membrane bound within 5 minutes after biosynthesis (12). The rapid membrane targeting is dependent on dual fatty acylation of Fyn with myristate and palmitate. The effect of 2-bromopalmitate on the ability of newly synthesized Fyn to localize to membranes was next examined. Transfected COS-1 cells were incubated for 12-16 hours with or without 100 μM 2-bromopalmitate. […]

[2] = system: G2A,C3SFyn-HRas and G12V H-Ras; assay: Membrane localization of the two Ras constructs in COS-1 cells; conditions: COS-1, 2-bromopalmitate overnight
Procedure: Analysis of the G2A,C3S Fyn-HRas chimera was performed according to the procedure described above. Analysis of the G12V HRas construct was according to the procedure described above, except that the samples were not immunoprecipiated, and were subjected to immunoblotting with anti-HRas antibody.
Each of these three sequences was appended onto the Fyn protein. Gαo(10)-Fyn and GAP43(10)-Fyn are chimeric constructs with the first 10 amino acids of Gαo or GAP-43, respectively, in place of the first 10 amino acids of wt Fyn. These constructs have been previously described (12,13). In addition, the H-Ras tail was fused to the C-terminus of a non-acylated Fyn mutant (G2A,C3SFyn-HRas). This construct contains full length Fyn with mutations in the N-terminal myristoylation and palmitoylation sites, but with the C-terminus of H-Ras available for prenylation and palmitoylation.
Finally, an oncogenic G12V full length H-Ras construct was tested. […] In contrast, 2-bromopalmitate had only a minimal effect on the membrane localization of the two Ras constructs, inducing a 10-20% shift from membrane to cytosol (FIGS. 3C and D). The G12V H-Ras construct migrates as a doublet on a gel. The slower migrating form represents the non-processed cytosolic form of H-Ras, and the faster migrating form represents the processed Ras, which is membrane bound.

[3] = system: LAT; assay: CD3-mediated tyrosine phosphorylation of LAT in Jurkat cells; conditions: 100 μM 3 hours, OKT3
Procedure: (§1) Jurkat T cells (2×10^6−1×10^7) were centrifuged at 1,000×g for 5 minutes, rinsed with RPMI, resuspended in RPMI supplemented with 2% dialyzed FBS, 0.5% defatted BSA, and incubated with or without 100 μM 2-bromopalmitate at 8×10^5 cells/ml for 3 hours. The cells were centrifuged, washed with RPMI and resuspended in RPMI at 1×10^7−1×10^8 cells/ml. The cells were then activated with anti-CD3 OKT3 mAb (0.3 mg/ml) for 3 min at 37° C., quickly spun down, washed once with cold RPMI and once with cold STE, and lysed in RIPA Samples were solubilized in 1× sample buffer containing 5% β-mercaptoethanol and subjected to SDS-PAGE, followed by immunoblotting with anti-phosphotyrosine antibody (PY99). For analysis of specific proteins, RIPA lysates were immunoprecipitated with the specific antibodies O/N, and immunoblotted for phosphotyrosine. Alternatively, proteins were immunoprecipitated with agarose-conjugated anti phosphotyrosine antibody and blotted for the specific proteins.
(§2) In order to identify the individual proteins whose tyrosine phosphorylation is affected by 2-bromopalmitate, lysates were immunoprecipitated with a panel of specific antibodies, and immunoblotted for phosphotyrosine. Alternatively, lysates were immunoprecipitated with an antiphosphotyrosine antibody, and blotted with antibodies to specific proteins.

[4] = system: PLC-γl; assay: CD3-mediated tyrosine phosphorylation of PLC-γl in Jurkat cells; conditions: 100 μM 3 hours, OKT3
Procedure: as §1, §2

[5] = system: Vav; assay: CD3-mediated tyrosine phosphorylation of Vav in Jurkat cells; conditions: 100 μM 3 hours, OKT3
Procedure: as §1, §2

[6] = system: ZAP-70; assay: CD3-mediated tyrosine phosphorylation of ZAP-70 in Jurkat cells; conditions: 100 μM 3 hours, OKT3
Procedure: as §1, §2

[7] = system: Jurkat cells; assay: Toxicity control: LAT and actin levels by immunoblot in Jurkat cells; conditions: toxicity check, data not shown
Procedure: To verify that the observed inhibition of T cell receptor-mediated tyrosine phosphorylation was not a result of toxicity effects of 2-bromopalmitate, aliquots of each sample were analyzed by immunoblotting with anti-LAT and anti-actin antibodies. The levels of LAT and actin were not affected by 2-bromopalmitate (data not shown). Thus 2-bromopalmitate was able to inhibit signaling through the T cell receptor, as assayed by its ability to inhibit tyrosine phosphorylation of key substrate proteins.

[8] = system: MAP kinase; assay: Activation of MAP kinase in Jurkat cells (pERK immunoblot); conditions: OKT3 activated, pERK1 blot
Procedure: Jurkat cells were treated with 2-bromopalmitate and activated as described above. Lysates were analyzed for the presence of active MAP kinase by immunoblotting with a pERK antibody, and for total MAP kinase by immunoblotting with an anti MAPK antibody.
One of the proximal events following T cell receptor engagement is activation of the MAP Kinase pathway. The ability of 2-bromopalmitate to inhibit activation of MAP kinase was examined in Jurkat cells. Cells were cultured with or without 2bromo-palmitate and activated as described above. Cell lysates were subjected to SDS-PAGE and immunoblotted with anti-active MAPK kinase (pERK1). As depicted in FIG. 7, 2-bromopalmitate inhibited the activation of MAPK kinase by 70%. The levels of total MAPK kinase remained unchanged (FIG. 7).

## CCCCCCCCCCCCCCC(Br)C(=O)O (stereo not drawn) [2-bromopalmitate]
[1]; COS-1, 100 μM for 12-16 hours, 5 min 35S label, untreated 90% membrane bound
  newly synthesized Fyn remaining cytosolic: 50%
[1]; COS-1, 100 μM, Western blot, data not shown
  steady-state Fyn fractionating in the cytosol: 50%
[2]
  shift from membrane to cytosol of the two Ras constructs: 10-20%
[3]
  CD3-mediated tyrosine phosphorylation of LAT: inhibited completely
[4]
  PLC-γl phosphorylation inhibited: 70%
[5]
  Vav phosphorylation inhibited: 40%
[6]
  ZAP-70 phosphorylation inhibited: 50%
[7]
  levels of LAT and actin: not affected
[8]
  activation of MAPK kinase inhibited: 70%
